Literature values, collected in patent US11833157B2, “Precipitation resistant small molecule drug formulations” (Xeris Pharmaceuticals, Inc., priority 2017, dated 2023).

Tested on: febrile seizures
Details: short term diazepam prophylaxis at times of fever; 39% without

In the case of `CN1C(=O)CN=C(c2ccccc2)c2cc(Cl)ccc21` [diazepam], the “18 month recurrence rate” value is listed as 12%.
